From ChEMBL document CHEMBL5465560, “Selectivity Literature for EUbOPEN Chemogenomic Library” (2024) come the findings set out here.

The target in assay [1] is Cyclin-dependent kinase 5 (Homo sapiens, UniProt Q00535). The assay can be described thus: Selectivity interaction (LanthaScreen Eu Kinase Binding Assay) EUB0001632a CDK5. The note with it: at 10 µM. (TR-FRET usually uses a lanthanide donor and a delayed reading to cut background.)
Assay [2] addresses Receptor tyrosine-protein kinase erbB-3 (Homo sapiens) (UniProt P21860). The assay can be described thus: Selectivity interaction (KinomeScan (DiscoverX)) EUB0000607a ERBB3. As to conditions: at 10 µM.
The target in assay [3] is Insulin-like growth factor 1 receptor (Homo sapiens, UniProt P08069). The assay can be described thus: Selectivity interaction (KinomeScan (DiscoverX)) EUB0000655a IGF1R. The note with it: at 10 µM.
Sequence of Insulin-like growth factor 1 receptor (P08069 31-736 limits assumed): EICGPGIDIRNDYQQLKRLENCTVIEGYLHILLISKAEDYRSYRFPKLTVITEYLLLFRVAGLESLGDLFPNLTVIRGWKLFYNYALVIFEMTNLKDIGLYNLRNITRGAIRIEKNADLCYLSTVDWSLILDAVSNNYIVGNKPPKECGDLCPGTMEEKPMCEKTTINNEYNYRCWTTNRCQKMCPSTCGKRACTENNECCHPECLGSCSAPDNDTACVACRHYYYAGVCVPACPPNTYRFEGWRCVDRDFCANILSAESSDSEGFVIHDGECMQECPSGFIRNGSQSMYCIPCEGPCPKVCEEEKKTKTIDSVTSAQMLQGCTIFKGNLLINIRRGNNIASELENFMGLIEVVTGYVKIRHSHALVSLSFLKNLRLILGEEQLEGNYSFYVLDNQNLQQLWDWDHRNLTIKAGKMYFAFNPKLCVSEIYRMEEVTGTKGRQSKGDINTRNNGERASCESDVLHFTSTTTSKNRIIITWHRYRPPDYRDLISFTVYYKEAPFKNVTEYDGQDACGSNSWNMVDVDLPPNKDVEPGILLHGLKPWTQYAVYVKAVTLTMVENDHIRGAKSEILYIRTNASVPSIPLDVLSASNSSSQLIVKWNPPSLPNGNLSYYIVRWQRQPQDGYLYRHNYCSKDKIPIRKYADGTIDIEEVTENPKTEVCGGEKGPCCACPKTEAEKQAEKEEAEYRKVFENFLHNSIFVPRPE
Sequence of Insulin-like growth factor 1 receptor (P08069 741-1367 limits assumed): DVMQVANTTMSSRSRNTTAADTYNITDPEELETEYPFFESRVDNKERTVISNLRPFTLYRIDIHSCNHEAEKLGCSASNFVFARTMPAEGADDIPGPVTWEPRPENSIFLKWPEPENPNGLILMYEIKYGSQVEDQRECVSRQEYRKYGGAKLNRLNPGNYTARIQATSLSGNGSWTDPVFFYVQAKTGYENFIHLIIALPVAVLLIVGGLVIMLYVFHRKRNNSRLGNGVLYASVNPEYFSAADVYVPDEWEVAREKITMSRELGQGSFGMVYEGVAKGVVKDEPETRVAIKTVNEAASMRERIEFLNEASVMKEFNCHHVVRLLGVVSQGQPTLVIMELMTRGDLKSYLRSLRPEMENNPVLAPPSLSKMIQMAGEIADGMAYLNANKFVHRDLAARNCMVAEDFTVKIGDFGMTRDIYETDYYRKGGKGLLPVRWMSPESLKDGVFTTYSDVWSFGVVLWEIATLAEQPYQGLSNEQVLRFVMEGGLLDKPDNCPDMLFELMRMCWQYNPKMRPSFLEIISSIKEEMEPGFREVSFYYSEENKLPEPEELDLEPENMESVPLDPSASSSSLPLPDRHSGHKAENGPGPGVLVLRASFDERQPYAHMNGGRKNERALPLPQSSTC
In assay [4] the target is T1, Tyrosine-protein kinase Tec (Homo sapiens) (UniProt P42680).
T1 sequence (whole entry): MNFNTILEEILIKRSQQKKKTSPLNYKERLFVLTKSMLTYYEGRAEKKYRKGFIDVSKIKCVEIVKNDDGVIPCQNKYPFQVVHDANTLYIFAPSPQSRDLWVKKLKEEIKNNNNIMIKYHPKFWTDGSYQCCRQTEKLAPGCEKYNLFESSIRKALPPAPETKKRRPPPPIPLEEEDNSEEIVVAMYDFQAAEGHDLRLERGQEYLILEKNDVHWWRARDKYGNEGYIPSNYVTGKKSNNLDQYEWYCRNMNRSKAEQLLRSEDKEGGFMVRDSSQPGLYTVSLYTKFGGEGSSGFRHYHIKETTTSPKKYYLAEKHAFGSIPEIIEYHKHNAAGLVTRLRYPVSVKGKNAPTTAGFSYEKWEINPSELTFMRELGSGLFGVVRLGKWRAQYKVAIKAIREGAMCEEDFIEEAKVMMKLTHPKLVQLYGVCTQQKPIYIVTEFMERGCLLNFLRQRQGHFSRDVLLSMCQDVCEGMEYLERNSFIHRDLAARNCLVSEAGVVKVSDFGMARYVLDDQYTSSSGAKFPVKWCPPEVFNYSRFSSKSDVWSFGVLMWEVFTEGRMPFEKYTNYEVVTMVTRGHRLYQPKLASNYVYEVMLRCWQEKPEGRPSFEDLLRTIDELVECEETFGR
Put plainly: Selectivity interaction (KinomeScan (DiscoverX)) EUB0001049a TEC. The note with it: at 1 µM.

For assay [5], the target named is High affinity nerve growth factor receptor (Homo sapiens, UniProt P04629). The assay can be described thus: Selectivity interaction (KinomeScan (DiscoverX)) EUB0000618a NTRK1. As to conditions: at 10 µM.
Sequence of High affinity nerve growth factor receptor (P04629 33-796 limits assumed): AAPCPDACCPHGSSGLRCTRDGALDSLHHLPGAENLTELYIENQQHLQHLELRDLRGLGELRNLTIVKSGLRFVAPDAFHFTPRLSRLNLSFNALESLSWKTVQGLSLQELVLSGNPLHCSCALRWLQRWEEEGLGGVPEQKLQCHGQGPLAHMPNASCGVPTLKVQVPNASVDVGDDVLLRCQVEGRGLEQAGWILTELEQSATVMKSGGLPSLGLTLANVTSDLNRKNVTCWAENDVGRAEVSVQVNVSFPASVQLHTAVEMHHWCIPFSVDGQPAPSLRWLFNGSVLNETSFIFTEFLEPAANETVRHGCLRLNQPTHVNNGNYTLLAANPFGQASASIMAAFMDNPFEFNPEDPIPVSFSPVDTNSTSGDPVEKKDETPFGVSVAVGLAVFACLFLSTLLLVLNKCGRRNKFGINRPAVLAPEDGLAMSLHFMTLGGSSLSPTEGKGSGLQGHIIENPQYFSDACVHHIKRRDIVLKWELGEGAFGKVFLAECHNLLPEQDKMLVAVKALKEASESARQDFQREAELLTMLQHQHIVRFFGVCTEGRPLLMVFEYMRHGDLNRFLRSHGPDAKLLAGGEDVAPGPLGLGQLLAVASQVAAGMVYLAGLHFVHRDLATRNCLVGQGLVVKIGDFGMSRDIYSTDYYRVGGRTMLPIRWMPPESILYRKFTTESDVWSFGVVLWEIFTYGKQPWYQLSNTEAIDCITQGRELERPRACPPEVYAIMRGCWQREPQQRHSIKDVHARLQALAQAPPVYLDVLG
In assay [6] the target is T2, NUAK family SNF1-like kinase 1 (Homo sapiens) (UniProt O60285).
T2 sequence (whole entry): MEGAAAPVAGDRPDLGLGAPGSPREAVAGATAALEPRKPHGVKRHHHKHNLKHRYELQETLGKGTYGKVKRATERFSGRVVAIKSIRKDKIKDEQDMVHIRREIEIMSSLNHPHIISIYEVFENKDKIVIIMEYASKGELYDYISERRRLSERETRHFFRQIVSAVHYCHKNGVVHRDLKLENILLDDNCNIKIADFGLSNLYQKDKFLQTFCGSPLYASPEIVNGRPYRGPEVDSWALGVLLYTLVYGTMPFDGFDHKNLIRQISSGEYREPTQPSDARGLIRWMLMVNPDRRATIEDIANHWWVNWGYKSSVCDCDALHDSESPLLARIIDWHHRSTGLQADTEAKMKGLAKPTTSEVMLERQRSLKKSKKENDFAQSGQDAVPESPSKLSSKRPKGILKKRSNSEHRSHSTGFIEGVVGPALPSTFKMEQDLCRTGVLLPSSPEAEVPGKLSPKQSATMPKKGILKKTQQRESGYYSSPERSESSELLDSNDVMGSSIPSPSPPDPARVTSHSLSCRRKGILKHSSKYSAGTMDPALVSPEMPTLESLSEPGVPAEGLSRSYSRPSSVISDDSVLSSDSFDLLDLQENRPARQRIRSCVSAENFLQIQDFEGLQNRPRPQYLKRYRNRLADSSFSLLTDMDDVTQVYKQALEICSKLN
Put plainly: Selectivity interaction (Upstate Kinase Profiler service (Millipore)) EUB0000056c NUAK1. As to conditions: at 1 µM.

Assay [7] has as its target T3, Rhodopsin kinase GRK7 (Homo sapiens) (UniProt Q8WTQ7).
T3 sequence (whole entry): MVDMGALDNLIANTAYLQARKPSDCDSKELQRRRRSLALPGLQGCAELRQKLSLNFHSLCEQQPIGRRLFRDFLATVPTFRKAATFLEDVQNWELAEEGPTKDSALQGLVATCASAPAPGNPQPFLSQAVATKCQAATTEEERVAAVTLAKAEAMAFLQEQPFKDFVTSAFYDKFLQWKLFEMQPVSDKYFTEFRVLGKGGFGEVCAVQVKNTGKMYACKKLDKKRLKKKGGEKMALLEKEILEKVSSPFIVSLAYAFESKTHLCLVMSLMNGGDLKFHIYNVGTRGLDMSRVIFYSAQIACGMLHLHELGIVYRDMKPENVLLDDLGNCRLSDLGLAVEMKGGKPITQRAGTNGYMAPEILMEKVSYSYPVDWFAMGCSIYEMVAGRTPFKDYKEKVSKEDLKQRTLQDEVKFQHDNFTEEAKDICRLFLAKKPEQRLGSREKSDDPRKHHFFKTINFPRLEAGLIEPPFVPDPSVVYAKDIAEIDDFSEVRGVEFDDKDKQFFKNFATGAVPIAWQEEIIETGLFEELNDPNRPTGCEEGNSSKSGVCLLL
Put plainly: Selectivity interaction (KinomeScan (DiscoverX)) EUB0000595a GRK7. The note with it: at 10 µM.

The structures appear in SMILES notation.

Sequence of Receptor tyrosine-protein kinase erbB-3 (Homo sapiens) (P21860 whole entry): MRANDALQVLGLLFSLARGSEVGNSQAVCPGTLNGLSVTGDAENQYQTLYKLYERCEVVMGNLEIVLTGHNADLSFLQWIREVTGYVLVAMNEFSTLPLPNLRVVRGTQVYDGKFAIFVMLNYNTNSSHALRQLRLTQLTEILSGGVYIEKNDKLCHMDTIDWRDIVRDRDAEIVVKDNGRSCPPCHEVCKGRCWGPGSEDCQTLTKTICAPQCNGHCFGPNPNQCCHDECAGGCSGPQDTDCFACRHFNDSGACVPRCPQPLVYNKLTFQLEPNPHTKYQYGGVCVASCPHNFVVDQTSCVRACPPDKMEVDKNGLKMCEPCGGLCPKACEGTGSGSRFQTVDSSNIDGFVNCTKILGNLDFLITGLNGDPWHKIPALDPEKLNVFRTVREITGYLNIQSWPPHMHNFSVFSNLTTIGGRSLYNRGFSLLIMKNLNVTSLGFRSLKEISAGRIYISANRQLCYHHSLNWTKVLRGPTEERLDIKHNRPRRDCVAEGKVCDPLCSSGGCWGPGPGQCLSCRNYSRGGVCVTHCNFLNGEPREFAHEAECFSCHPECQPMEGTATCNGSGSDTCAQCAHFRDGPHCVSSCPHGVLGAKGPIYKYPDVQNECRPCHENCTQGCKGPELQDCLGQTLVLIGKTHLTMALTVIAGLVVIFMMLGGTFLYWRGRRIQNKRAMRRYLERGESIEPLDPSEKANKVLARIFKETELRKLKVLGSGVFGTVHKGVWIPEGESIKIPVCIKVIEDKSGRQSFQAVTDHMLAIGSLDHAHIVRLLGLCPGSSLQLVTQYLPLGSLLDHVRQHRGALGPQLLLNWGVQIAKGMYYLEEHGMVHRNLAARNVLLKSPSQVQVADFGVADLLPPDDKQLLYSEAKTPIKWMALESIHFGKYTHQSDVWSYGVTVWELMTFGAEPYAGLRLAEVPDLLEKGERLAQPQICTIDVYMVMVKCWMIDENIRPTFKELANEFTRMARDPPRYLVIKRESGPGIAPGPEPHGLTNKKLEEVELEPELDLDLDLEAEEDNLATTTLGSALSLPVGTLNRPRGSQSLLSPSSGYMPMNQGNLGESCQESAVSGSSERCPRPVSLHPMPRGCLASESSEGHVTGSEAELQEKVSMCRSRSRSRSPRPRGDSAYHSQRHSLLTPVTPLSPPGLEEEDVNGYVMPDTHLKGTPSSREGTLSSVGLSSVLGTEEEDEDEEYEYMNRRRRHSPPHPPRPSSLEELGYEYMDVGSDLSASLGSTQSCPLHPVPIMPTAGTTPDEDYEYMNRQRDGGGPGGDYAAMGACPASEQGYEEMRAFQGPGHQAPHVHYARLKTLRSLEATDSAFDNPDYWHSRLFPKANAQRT
Sequence of Cyclin-dependent kinase 5 (Q00535 whole entry, looked up): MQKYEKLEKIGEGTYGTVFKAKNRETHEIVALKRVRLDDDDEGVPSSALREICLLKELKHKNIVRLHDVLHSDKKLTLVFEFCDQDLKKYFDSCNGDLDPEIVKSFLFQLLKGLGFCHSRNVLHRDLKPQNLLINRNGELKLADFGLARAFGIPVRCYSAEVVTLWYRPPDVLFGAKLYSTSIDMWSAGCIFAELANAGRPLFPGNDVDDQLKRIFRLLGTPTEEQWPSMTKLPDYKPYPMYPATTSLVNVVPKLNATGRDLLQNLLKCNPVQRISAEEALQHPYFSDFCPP

As to `Cn1cc(-n2cnc3c(NCc4nc5cc(Cl)c(Cl)cc5[nH]4)nc(N4CCOCC4)nc32)cn1`, the % of inhibition in assay [1] is -96.6%. For `CNC(=O)Nc1ccc(-c2nc(N3CC4CCC(C3)O4)c3cnn(C4CCC5(CC4)OCCO5)c3n2)cc1`, the % of control in assay [2] stood at 100%.

With `CN(C)CCOc1ccc(-c2nc(-c3ccncc3)c(-c3ccc4c(c3)CC/C4=N\O)[nH]2)cc1`, the % of control in assay [3] amounted to 100%. In assay [4], `COc1cc(Nc2nc(C)cc(-c3cnn4nc(OC)ccc34)n2)cc(C(F)(F)F)c1` gave a % of control of 78%.

`O[C@H]1CC[C@H](Nc2ncc3nc(Nc4c(F)cc(F)cc4F)n([C@H]4CCOC4)c3n2)CC1` gave a % of control in assay [5] of 75%. Regarding `Cc1ccc(-c2ccc3c(ccc4sc5c(c43)NC[C@@H](C)NC5=O)n2)cn1`, the % of inhibition in assay [6] worked out at 35%.

With `COCC(=O)NC/C=C/c1ccc2ncnc(Nc3ccc(Oc4ccc(C)nc4)c(C)c3)c2c1` [CP-724714], the % of control in assay [7] was determined as 100%.
